Test results as given in patent US20240182513A1, “SEPARATION OF METAL IONS FROM A SAMPLE USING GLYCOLIPIDS” (ARIZONA BOARD OF REGENTS ON BEHALF OF THE UNIVERSITY OF …, priority 2021, published 2024).

Columns and labels:
[1] = Example 2.1 rhamnolipid precipitation, filtration, centrifugation: lead; conditions: for Treatment 3: Rhamnolipid and Centrifugation Cc / Treatment 1: Rhamnolipid Only Cr / Treatment 2: Rhamnolipid and Filtration Cf: lead concentration after treatment; for Treatment 1: Rhamnolipid Only (Rr) efficiency of removal / Treatment 2: Rhamnolipid and Filtration (Rf) efficiency of removal / Treatment 3: Rhamnolipid and Centrifugation (Rc) efficiency of removal: lead
Protocol: (§1) Structural variants of synthetic glycolipids were used to show the effect of the number and length of the hydrophobic tail(s) on rhamnolipid as a chemical precipitant. […] Solutions (10 mM) were made using nanopure water (≥18 MΩ-cm) then adjusted to a pH of 6.9±0.05 with HNO3 and NaOH. These solutions were made in advance and stored in the cold room for up to one month. They were brought to room temperature before each experiment.
(§2) Three metals were tested for binding with rhamnolipid. Lead as […] (Fisher Scientific, Waltham, MA, 99% purity), was chosen to represent a metal with high rhamnolipid-metal conditional stability constant; lanthanum as La(NO3)3 6(H2O) (Sigma-Aldrich, St. Louis, MO, 99.99% purity) was chosen as a representative REE; and magnesium as Mg(NO3)2 6(H2O) (Sigma-Aldrich, St. Louis, MO, 99% purity) was chosen to represent a metal with a low rhamnolipid-metal conditional stability constant (Hogan et al., 2017). Metal solutions (5 mM) were made using nanopure water (≥18 MΩ-cm) in 20 ml glass scintillation vials. All solutions were used within 15 min to ensure minimal adsorption to the glass vial.
(§3) Three glycolipid-based treatments were evaluated to remove metal from solution: (1) the addition of glycolipid with no further treatment (gravitational precipitation), (2) the addition of a glycolipid followed by filtration or (3) the addition of a glycolipid followed by centrifugation. Each metal (Pb, La, and Mg) was evaluated separately with each of the glycolipid structures. For each experiment, a metal solution was mixed with a glycolipid solution in a 1.7 ml reaction tube at varying molar ratios of glycolipid to metal: 0:1 (glycolipid-free control), 2:1, 5:1, and 10:1. The reactions were mixed in the order of nanopure water (≥18 MΩ-cm), glycolipid solution (10 mM), then metal solution (5 mM). The metal and glycolipid solutions were continuously stirred as they were aliquoted into the reaction tubes. The experiment was performed in triplicate.
(§4) The reaction tubes were mixed overnight (16 to 24 h) and then three samples were collected from each tube to measure the effect of each of the three treatments: a glycolipid only treatment sample, a filtration treatment sample, and a centrifugation treatment sample. Briefly, for the glycolipid only treatment samples all tubes were vortexed for approximately 5 sec immediately before removing 0.1 ml into a dilution tube of 2% trace metal grade nitric acid (12 to 14 ml) to minimize the settling of particles. For the filtration samples each reaction tube was vortexed for 5 sec and then a 0.6 ml aliquot was collected with a 1 ml syringe. A GHP acrodisc disk filter (hydrophilic polypropylene membrane, 0.45 μm pore size, 25 mm disc diameter) from Pall Life Sciences (Port Washington, New York) was then placed onto the end of the syringe and the solution was pushed through the filter. The void space in the disk filter holds approximately 0.5 ml, therefore around 0.1 ml of filtrate was collected into a dilution tube. For the centrifugation sample, the remaining solution was centrifuged at 10,000 RCF for 15 min. Approximately 0.1 ml of the supernatant was aliquoted into a dilution tube. Following collection, all samples were taken for metal analysis using ICP-MS.

[2] = Example 2.1 rhamnolipid precipitation, filtration, centrifugation: lanthanum; conditions: for Treatment 2: Rhamnolipid and Filtration Cf / Treatment 3: Rhamnolipid and Centrifugation Cc / Treatment 1: Rhamnolipid Only Cr: lanthanum concentration after treatment; for Treatment 2: Rhamnolipid and Filtration (Rf) efficiency of removal / Treatment 3: Rhamnolipid and Centrifugation (Rc) efficiency of removal / Treatment 1: Rhamnolipid Only (Rr) efficiency of removal: lanthanum
Protocol: as §1, §2, §3, §4

[3] = Example 2.1 rhamnolipid precipitation, filtration, centrifugation: magnesium; conditions: for Treatment 2: Rhamnolipid and Filtration Cf / Treatment 3: Rhamnolipid and Centrifugation Cc / Treatment 1: Rhamnolipid Only Cr: magnesium concentration after treatment; for Treatment 1: Rhamnolipid Only (Rr) efficiency of removal / Treatment 2: Rhamnolipid and Filtration (Rf) efficiency of removal / Treatment 3: Rhamnolipid and Centrifugation (Rc) efficiency of removal: magnesium
Protocol: as §1, §2, §3, §4

For `CCCCCCCC(CC(=O)O)OC1O[C@@H](C)[C@H](O)[C@@H](O)[C@H]1O` (stereo partly drawn) [Rha C10], the “Treatment 3: Rhamnolipid and Centrifugation Cc” value ([1]; molar ratio 2 to 1) was 0.320 ± 0.045 mmol/L, the “Treatment 1: Rhamnolipid Only Cr” value ([1]; molar ratio 5 to 1) was 0.293 ± 0.006 mmol/L and the “Treatment 2: Rhamnolipid and Filtration Cf” value ([1]; molar ratio 5 to 1) was 0.028 ± 0.031 mmol/L. For the same compound, the “Treatment 3: Rhamnolipid and Centrifugation Cc” value ([1]; molar ratio 5 to 1) was 0.288 ± 0.002 mmol/L, the “Treatment 1: Rhamnolipid Only Cr” value ([1]; molar ratio 10 to 1) was 0.232 ± 0.009 mmol/L and the “Treatment 2: Rhamnolipid and Filtration Cf” value ([1]; molar ratio 10 to 1) was 0.001 ± 0.000 mmol/L. The “Treatment 3: Rhamnolipid and Centrifugation Cc” value ([1]; molar ratio 10 to 1) was 0.231 ± 0.003 mmol/L, the “Treatment 1: Rhamnolipid Only Cr” value ([1]; molar ratio rhamnolipid:lead 2 to 1) was 0.320 ± 0.012 mmol/L and the “Treatment 1: Rhamnolipid Only (Rr) efficiency of removal” value ([1]; molar ratio 2 to 1) was “(2.7%)”. The “Treatment 2: Rhamnolipid and Filtration (Rf) efficiency of removal” value ([1]; molar ratio 2 to 1) was “(88.8%)”, the “Treatment 3: Rhamnolipid and Centrifugation (Rc) efficiency of removal” value ([1]; molar ratio 2 to 1) was “(2.5%)” and the “Treatment 1: Rhamnolipid Only (Rr) efficiency of removal” value ([1]; molar ratio 5 to 1) was “(10.7%)”. For the same compound, the “Treatment 2: Rhamnolipid and Filtration (Rf) efficiency of removal” value ([1]; molar ratio 5 to 1) was “(91.6%)”, the “Treatment 3: Rhamnolipid and Centrifugation (Rc) efficiency of removal” value ([1]; molar ratio 5 to 1) was “(12.2%)” and the “Treatment 1: Rhamnolipid Only (Rr) efficiency of removal” value ([1]; molar ratio 10 to 1) was “(29.3%)”. The “Treatment 2: Rhamnolipid and Filtration (Rf) efficiency of removal” value ([1]; molar ratio 10 to 1) was “(99.8%)”, the “Treatment 3: Rhamnolipid and Centrifugation (Rc) efficiency of removal” value ([1]; molar ratio 10 to 1) was “(29.7%)” and the “Treatment 2: Rhamnolipid and Filtration Cf” value ([2]; molar ratio 2 to 1) was 0.096 ± 0.025 mmol/L. For the same compound, the “Treatment 3: Rhamnolipid and Centrifugation Cc” value ([2]; molar ratio 2 to 1) was 0.228 ± 0.013 mmol/L, the “Treatment 1: Rhamnolipid Only Cr” value ([2]; molar ratio 5 to 1) was 0.246 ± 0.016 mmol/L and the “Treatment 2: Rhamnolipid and Filtration Cf” value ([2]; molar ratio 5 to 1) was 0.015 ± 0.010 mmol/L. The “Treatment 3: Rhamnolipid and Centrifugation Cc” value ([2]; molar ratio 5 to 1) was 0.088 ± 0.003 mmol/L, the “Treatment 1: Rhamnolipid Only Cr” value ([2]; molar ratio 10 to 1) was 0.190 ± 0.004 mmol/L and the “Treatment 2: Rhamnolipid and Filtration Cf” value ([2]; molar ratio 10 to 1) was 0.022 ± 0.028 mmol/L. For the same compound, the “Treatment 3: Rhamnolipid and Centrifugation Cc” value ([2]; molar ratio 10 to 1) was 0.051 ± 0.010 mmol/L, the “Treatment 1: Rhamnolipid Only Cr” value ([2]; molar ratio rhamnolipid:lanthanum 2 to 1) was 0.282 ± 0.009 mmol/L and the “Treatment 2: Rhamnolipid and Filtration (Rf) efficiency of removal” value ([2]; molar ratio 2 to 1) was “(65.7%)”. The “Treatment 3: Rhamnolipid and Centrifugation (Rc) efficiency of removal” value ([2]; molar ratio 2 to 1) was “(18.6%)”, the “Treatment 1: Rhamnolipid Only (Rr) efficiency of removal” value ([2]; molar ratio 5 to 1) was “(12.3%)” and the “Treatment 2: Rhamnolipid and Filtration (Rf) efficiency of removal” value ([2]; molar ratio 5 to 1) was “(94.6%)”. For the same compound, the “Treatment 3: Rhamnolipid and Centrifugation (Rc) efficiency of removal” value ([2]; molar ratio 5 to 1) was “(68.7%)”, the “Treatment 1: Rhamnolipid Only (Rr) efficiency of removal” value ([2]; molar ratio 10 to 1) was “(32.2%)” and the “Treatment 2: Rhamnolipid and Filtration (Rf) efficiency of removal” value ([2]; molar ratio 10 to 1) was “(92.1%)”. The “Treatment 3: Rhamnolipid and Centrifugation (Rc) efficiency of removal” value ([2]; molar ratio 10 to 1) was “(81.7%)”, the “Treatment 2: Rhamnolipid and Filtration Cf” value ([3]; molar ratio 2 to 1) was 0.328 ± 0.036 mmol/L and the “Treatment 3: Rhamnolipid and Centrifugation Cc” value ([3]; molar ratio 2 to 1) was 0.497 ± 0.014 mmol/L. The “Treatment 1: Rhamnolipid Only Cr” value ([3]; molar ratio 5 to 1) was 0.492 ± 0.007 mmol/L, the “Treatment 2: Rhamnolipid and Filtration Cf” value ([3]; molar ratio 5 to 1) was 0.283 ± 0.059 mmol/L and the “Treatment 3: Rhamnolipid and Centrifugation Cc” value ([3]; molar ratio 5 to 1) was 0.500 ± 0.008 mmol/L. The “Treatment 1: Rhamnolipid Only Cr” value ([3]; molar ratio 10 to 1) was 0.503 ± 0.004 mmol/L, the “Treatment 2: Rhamnolipid and Filtration Cf” value ([3]; molar ratio 10 to 1) was 0.317 ± 0.073 mmol/L and the “Treatment 3: Rhamnolipid and Centrifugation Cc” value ([3]; molar ratio 10 to 1) was 0.490 ± 0.004 mmol/L. For the same compound, the “Treatment 1: Rhamnolipid Only Cr” value ([3]; molar ratio rhamnolipid:magnesium 2 to 1) was 0.486 ± 0.021 mmol/L, the “Treatment 1: Rhamnolipid Only (Rr) efficiency of removal” value ([3]; molar ratio 2 to 1) was “(3.1%)” and the “Treatment 2: Rhamnolipid and Filtration (Rf) efficiency of removal” value ([3]; molar ratio 2 to 1) was “(34.6%)”. For the same compound, the “Treatment 3: Rhamnolipid and Centrifugation (Rc) efficiency of removal” value ([3]; molar ratio 2 to 1) was “(0.8%)”, the “Treatment 1: Rhamnolipid Only (Rr) efficiency of removal” value ([3]; molar ratio 5 to 1) was “(1.8%)” and the “Treatment 2: Rhamnolipid and Filtration (Rf) efficiency of removal” value ([3]; molar ratio 5 to 1) was “(43.6%)”. For the same compound, the “Treatment 3: Rhamnolipid and Centrifugation (Rc) efficiency of removal” value ([3]; molar ratio 5 to 1) was “(0.2%)”, the “Treatment 2: Rhamnolipid and Filtration (Rf) efficiency of removal” value ([3]; molar ratio 10 to 1) was “(36.7%)” and the “Treatment 3: Rhamnolipid and Centrifugation (Rc) efficiency of removal” value ([3]; molar ratio 10 to 1) was “(2.2%)”.
